These results are taken from publication PMC7290210 (Infection, Genetics and Evolution, 2020).

The target in assay [1] is S-RBD-ACE2 protein complex (Homo sapiens, UniProt Q9BYF1). It is filed as binding, SARS-CoV-2.
A further assay addresses human ACE2 (Homo sapiens, UniProt Q9BYF1). Nature of the assay: Surface plasmon resonance assay, human ACE2 chip. The format is binding. Conditions: SPR, human ACE2 extracellular domain, pH 4.5, 25 °C.
A further assay deals with SARS-CoV-2 S1 + S2 ECD (Severe acute respiratory syndrome coronavirus 2, UniProt P0DTC2). Nature of the assay: biochemical. It is filed as binding.
A further assay concerns the target SARS-CoV2 S2 ECD (Severe acute respiratory syndrome coronavirus 2, UniProt P0DTC2). Nature of the assay: biochemical. It is filed as binding, SARS-CoV-2.

Sequence of S-RBD-ACE2 protein complex (Q9BYF1 18-740, one chain of several): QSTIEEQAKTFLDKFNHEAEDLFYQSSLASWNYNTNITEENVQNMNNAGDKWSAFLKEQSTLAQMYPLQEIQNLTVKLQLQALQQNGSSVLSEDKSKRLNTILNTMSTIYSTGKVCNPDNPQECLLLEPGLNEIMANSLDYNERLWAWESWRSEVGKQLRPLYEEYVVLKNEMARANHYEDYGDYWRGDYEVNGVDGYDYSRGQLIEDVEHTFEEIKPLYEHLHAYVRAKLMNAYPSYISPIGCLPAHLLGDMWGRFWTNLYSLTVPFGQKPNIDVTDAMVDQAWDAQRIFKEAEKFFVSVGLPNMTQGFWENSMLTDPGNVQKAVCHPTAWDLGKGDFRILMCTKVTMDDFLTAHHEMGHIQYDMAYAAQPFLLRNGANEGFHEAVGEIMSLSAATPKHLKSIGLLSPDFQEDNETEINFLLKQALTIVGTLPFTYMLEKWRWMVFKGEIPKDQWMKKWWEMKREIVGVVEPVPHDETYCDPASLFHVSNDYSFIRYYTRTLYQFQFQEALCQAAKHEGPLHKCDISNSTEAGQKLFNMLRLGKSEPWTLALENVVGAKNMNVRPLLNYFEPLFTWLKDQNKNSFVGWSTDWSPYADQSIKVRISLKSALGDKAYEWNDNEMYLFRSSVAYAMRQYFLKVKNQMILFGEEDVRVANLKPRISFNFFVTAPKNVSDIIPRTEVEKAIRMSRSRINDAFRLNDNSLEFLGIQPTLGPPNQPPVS
Sequence of human ACE2 (Q9BYF1 18-740): as the sequence (Q9BYF1 18-740, one chain of several) above

Consider `[Ca+2].[Cl-].[Cl-]` [CaCl2], for which the “Tm Mean of RBD-ACE2 complex” value in assay [1] stood at 51.6 °C.

At human ACE2, `CC1(C)[C@@H](O[C@H]2O[C@H](C(=O)O)[C@@H](O)[C@H](O)[C@H]2O[C@@H]2O[C@H](C(=O)O)[C@@H](O)[C@H](O)[C@H]2O)CC[C@]2(C)[C@H]3C(=O)C=C4[C@@H]5C[C@@](C)(C(=O)O)CC[C@]5(C)CC[C@@]4(C)[C@]3(C)CC[C@@H]12` [Glycyrrhizate, glycyrrhizate] had a Kd of 4900 µM. Besides, the Rmax at human ACE2 (listed as glycyrrhizate) is listed as 557.8 RU.

On to `CC1=NN(c2ccc(C)c(C)c2)C(=O)/C1=N\Nc1cccc(-c2cccc(C(=O)O)c2)c1O` [Eltrombopag], for which the Kd on SARS-CoV-2 S1 + S2 ECD was 2.01 µM; at SARS-CoV2 S2 ECD (KD), 2.17 µM; at human ACE2, 0.828 µM. Also, in assay [1], the “Tm Mean of RBD-ACE2 complex” value was determined as 49.9 °C. Moreover, the Rmax on human ACE2 was 21.95 RU.

Glycyrrhizic acid had an Rmax on SARS-CoV2 S2 ECD (pH 5.5) of 623.7 RU.

`[Cl-].[Cl-].[Mg+2]` [MgCl2]: in assay [1], the “Tm Mean of RBD-ACE2 complex” value turned out to be 51.6 °C.

At human ACE2, `CC1(C)[C@@H](O[C@H]2O[C@H](C(=O)O)[C@@H](O)[C@H](O)[C@H]2O[C@@H]2O[C@H](C(=O)O)[C@@H](O)[C@H](O)[C@H]2O)CC[C@]2(C)[C@H]3C(=O)C=C4[C@@H]5C[C@@](C)(C(=O)O)CC[C@]5(C)CC[C@@]4(C)[C@]3(C)CC[C@@H]12` [Glycyrrhizin, glycyrrhizin] had a Kd of 1800 µM. This compound also displayed an Rmax at human ACE2 (listed as glycyrrhizin) of 499.4 RU.
